This passage reports Kd and IC50 results from US10526316B2, “Quinoxaline and pyridopyrazine derivatives as PI3Kβ inhibitors” (Janssen Pharmaceutica NV, priority 2015, dated 2020).

For one test, the target named is T1, PI3Kβ (Homo sapiens, UniProt P42338).
T1 construct: purchased DiscoveRx Corporation, San Diego (contract service, KINOMEscan)
Briefly: Enzyme binding assay (KINOMEscan, DiscoveRx). To be noted: PIK3Cβ_h, read-out: Kd PIK3Cβ_h. The gist of the method:
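Kinase binding affinities were measured with KINOMEscan technology. Results are given as Kd, the inhibitor binding constant, in nM.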

For a further test, the target named is T2, PI3Kδ (Homo sapiens, UniProt O00329).
T2 construct: purchased DiscoveRx Corporation, San Diego (contract service, KINOMEscan)
T2 sequence (O00329 1-1044): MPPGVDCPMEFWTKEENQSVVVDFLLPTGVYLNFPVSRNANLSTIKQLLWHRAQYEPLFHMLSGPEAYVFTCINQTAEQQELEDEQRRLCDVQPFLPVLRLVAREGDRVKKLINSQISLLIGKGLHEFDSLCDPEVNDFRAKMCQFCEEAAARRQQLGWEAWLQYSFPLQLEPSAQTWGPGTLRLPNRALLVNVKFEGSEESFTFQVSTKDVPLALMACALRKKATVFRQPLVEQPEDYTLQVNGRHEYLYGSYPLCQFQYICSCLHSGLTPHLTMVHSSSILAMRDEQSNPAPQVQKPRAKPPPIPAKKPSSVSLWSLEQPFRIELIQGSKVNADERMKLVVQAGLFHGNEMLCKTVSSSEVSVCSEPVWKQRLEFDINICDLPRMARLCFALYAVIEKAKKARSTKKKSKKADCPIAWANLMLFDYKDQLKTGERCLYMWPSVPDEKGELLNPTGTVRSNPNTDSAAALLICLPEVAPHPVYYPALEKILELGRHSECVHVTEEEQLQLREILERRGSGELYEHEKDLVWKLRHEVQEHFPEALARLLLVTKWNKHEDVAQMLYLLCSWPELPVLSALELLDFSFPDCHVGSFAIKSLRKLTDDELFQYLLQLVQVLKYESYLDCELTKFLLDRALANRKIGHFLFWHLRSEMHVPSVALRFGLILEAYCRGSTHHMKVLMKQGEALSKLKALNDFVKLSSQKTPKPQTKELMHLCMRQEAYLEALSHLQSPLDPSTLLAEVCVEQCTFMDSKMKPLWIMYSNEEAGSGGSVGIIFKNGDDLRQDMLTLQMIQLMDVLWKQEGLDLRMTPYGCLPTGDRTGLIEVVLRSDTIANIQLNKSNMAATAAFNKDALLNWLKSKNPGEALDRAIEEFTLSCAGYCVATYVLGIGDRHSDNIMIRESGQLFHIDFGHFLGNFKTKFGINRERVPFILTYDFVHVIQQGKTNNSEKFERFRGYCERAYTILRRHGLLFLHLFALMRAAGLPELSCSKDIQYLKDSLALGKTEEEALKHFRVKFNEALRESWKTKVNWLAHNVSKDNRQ
Briefly: Enzyme binding assay (KINOMEscan, DiscoveRx). To be noted: PIK3Cδ_h. The gist of the method:
(§1)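 Binding affinities were measured on the KINOMEscan platform.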

Test [1] has as its target T3, kinase enzymes (Homo sapiens, UniProt P48736).
T3 construct: purchased DiscoveRx Corporation, San Diego (contract service, KINOMEscan)
Briefly: Enzyme binding assay (KINOMEscan, DiscoveRx), further kinases of Table A. To be noted: PIK3Cγ_h. Summed up:
as §1

The target in test [2] is T4, kinase enzymes (Homo sapiens, UniProt P42336).
T4 construct: purchased DiscoveRx Corporation, San Diego (contract service, KINOMEscan)
T4 sequence (P42336 whole entry): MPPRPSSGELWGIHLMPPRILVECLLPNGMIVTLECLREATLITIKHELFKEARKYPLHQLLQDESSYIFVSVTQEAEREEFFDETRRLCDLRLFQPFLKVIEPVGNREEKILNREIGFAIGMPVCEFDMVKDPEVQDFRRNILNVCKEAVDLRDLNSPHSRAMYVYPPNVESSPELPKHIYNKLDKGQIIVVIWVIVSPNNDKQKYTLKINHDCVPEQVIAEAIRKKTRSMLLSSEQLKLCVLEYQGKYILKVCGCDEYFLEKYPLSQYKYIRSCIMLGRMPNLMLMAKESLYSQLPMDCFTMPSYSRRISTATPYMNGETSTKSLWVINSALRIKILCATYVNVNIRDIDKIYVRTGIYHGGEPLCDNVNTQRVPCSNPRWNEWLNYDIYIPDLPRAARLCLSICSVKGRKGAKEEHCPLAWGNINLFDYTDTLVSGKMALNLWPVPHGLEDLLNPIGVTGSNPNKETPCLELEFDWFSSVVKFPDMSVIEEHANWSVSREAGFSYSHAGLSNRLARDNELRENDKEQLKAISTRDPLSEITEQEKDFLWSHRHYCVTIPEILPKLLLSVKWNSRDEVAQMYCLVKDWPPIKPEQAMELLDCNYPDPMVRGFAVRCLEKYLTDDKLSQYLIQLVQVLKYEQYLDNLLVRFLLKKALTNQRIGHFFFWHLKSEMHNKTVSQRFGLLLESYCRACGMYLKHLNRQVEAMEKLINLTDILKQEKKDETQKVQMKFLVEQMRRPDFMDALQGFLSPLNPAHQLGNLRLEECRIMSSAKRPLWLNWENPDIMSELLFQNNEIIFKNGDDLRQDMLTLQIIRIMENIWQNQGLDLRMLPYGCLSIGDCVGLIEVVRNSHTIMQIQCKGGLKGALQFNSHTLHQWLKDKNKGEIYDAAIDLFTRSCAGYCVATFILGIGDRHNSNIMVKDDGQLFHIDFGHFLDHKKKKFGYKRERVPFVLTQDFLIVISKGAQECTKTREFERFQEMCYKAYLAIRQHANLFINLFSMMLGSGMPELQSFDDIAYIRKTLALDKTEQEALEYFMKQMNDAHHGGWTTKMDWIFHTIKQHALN
Described as above. The conditions noted are these: PIK3Cα_h. Summed up:
as §1

The target in test [3] is T5, kinase enzymes (Homo sapiens, UniProt P42345).
T5 construct: purchased DiscoveRx Corporation, San Diego (contract service, KINOMEscan)
The test is described as above. The conditions noted are these: MTOR_h. The gist of the method:
as §1

Test [4] relates to Akt phosphorylated at Ser473 in PC-3 cells. The test is described as follows: Cellular assay: phosphorylation of Akt at Ser473 in PC-3 cells (MSD ELISA). The class given is cell-based. The conditions noted are these: PC-3 cells, 60 min compound incubation, MSD ELISA, read-out: IC50 pAkt_S473. Summed up:
(§2)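 Electrochemiluminescent sandwich ELISA read-out: phospho-specific capture (Ser473 or Thr308), Sulfo-tag anti-total Akt detection, signal proportional to phospho-Akt. Cells treated 60 min at 37° C with compound, DMSO 0.3%. IC50 fitted from five concentrations.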

The subject of test [5] is Akt phosphorylated at Thr308 in PC-3 cells. The test is described as follows: Cellular assay: phosphorylation of Akt at Thr308 in PC-3 cells (MSD ELISA). To be noted: PC-3 cells, 60 min compound incubation, MSD ELISA, read-out: IC50 pAkt_Thr308. The class given is cell-based. Summed up: as §2

Read-outs that look alike come from different tables or passages of the source.

T1 sequence (P42338 whole entry): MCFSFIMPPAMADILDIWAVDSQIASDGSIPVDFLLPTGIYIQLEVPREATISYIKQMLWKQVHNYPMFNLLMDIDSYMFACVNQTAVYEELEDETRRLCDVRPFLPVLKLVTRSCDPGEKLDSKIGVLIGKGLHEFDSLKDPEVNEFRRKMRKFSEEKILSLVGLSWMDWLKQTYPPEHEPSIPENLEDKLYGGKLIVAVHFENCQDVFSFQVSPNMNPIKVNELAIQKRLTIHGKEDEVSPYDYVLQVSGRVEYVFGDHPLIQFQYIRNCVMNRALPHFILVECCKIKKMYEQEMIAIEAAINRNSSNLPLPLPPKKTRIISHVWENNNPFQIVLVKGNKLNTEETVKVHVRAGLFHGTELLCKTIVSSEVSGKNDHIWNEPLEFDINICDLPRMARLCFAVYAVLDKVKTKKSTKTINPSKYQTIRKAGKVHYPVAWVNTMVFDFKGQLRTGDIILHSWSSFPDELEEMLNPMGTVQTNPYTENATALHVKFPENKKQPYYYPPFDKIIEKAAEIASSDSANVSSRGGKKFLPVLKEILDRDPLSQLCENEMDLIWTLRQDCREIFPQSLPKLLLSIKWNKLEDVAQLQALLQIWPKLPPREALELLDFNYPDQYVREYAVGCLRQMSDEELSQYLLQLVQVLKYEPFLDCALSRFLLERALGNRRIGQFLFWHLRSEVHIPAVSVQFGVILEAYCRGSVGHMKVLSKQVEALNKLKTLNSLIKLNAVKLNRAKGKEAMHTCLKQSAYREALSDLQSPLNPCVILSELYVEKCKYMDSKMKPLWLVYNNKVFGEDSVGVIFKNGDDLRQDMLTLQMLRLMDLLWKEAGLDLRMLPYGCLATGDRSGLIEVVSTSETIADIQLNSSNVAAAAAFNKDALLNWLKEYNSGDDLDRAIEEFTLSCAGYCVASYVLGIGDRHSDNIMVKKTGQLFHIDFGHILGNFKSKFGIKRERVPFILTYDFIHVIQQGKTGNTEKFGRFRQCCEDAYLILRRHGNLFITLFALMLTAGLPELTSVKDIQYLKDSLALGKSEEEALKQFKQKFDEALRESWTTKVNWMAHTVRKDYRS
T3 sequence (P48736 whole entry): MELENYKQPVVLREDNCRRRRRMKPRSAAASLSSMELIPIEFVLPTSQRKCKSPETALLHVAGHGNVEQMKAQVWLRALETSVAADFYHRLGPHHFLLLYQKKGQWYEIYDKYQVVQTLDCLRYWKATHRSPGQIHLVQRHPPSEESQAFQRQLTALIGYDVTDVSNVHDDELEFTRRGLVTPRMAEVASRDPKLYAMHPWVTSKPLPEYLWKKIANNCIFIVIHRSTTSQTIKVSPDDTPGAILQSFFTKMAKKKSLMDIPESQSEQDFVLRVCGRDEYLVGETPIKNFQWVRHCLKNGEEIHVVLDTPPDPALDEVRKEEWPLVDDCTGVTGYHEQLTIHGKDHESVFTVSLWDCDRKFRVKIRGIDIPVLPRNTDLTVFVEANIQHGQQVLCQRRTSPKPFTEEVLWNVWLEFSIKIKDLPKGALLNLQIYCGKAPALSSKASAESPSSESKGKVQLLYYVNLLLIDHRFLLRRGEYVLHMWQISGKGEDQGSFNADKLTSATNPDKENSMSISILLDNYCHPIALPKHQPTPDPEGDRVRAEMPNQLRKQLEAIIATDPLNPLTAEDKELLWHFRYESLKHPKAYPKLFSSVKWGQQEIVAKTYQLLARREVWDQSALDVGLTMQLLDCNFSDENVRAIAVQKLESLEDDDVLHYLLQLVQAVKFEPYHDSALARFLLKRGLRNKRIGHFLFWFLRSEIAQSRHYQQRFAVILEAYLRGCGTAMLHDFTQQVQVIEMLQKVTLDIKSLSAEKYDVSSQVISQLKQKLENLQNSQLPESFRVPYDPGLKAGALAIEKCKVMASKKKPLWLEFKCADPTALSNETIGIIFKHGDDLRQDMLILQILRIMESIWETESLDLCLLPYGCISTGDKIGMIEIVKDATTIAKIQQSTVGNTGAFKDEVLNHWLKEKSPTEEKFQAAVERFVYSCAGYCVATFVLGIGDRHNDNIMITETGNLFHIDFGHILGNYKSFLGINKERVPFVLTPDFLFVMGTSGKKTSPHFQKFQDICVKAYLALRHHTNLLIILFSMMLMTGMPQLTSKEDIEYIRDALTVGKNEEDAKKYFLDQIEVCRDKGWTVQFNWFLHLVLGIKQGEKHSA

Turning to `CN(C)C(=O)c1cc(N2CCC[C@@H]2c2cc(F)cc(F)c2)c2nc(C3=CCOCC3)cnc2c1` [Compound 398], the Kd was 257 nM at PI3Kβ; 5750 nM on PI3Kδ; above 30.2 µM at kinase enzymes [1]; 10.7 µM at kinase enzymes [2]; above 30.2 µM on kinase enzymes [3]. Moreover, the 50% inhibitory concentration (IC50) was above 513 nM in test [4] (Homo sapiens, PC-3, 1 h) and above 513 nM in test [5] (Homo sapiens, PC-3, 1 h).

On to `OC(CN1CCC1)c1cc(C2CCCN2c2cc(F)cc(F)c2)c2nc(N3CCOCC3)cnc2c1` (single isomer, unassigned) [Compound 95], for which the Kd on PI3Kβ is 0.5 nM; at PI3Kδ, 178 nM; on kinase enzymes [1], 1.1 µM; at kinase enzymes [2], 0.295 µM; on kinase enzymes [3], above 30.2 µM. For the same compound, the results for the IC50 in test [4] and in test [5] were 34 nM and 18 nM, respectively.

For `CC(Nc1cc(F)cc(F)c1)c1cc(C2=NC(C)(C)CO2)cc2ncc(N3CCOCC3)nc12` (single isomer, unassigned) [Compound 187], the dissociation constant (Kd) on PI3Kβ is 1050 nM; on PI3Kδ, above 30200 nM; on kinase enzymes [1], above 30.2 µM; on kinase enzymes [2], above 30.2 µM; on kinase enzymes [3] it was above 30.2 µM. Also, the IC50 was above 513 nM in test [4] (Homo sapiens, PC-3, 1 h) and above 513 nM in test [5] (Homo sapiens, PC-3, 1 h).

In the case of `CC(Nc1ccc(F)c(F)c1)c1cc(C(=O)NCCN(C)C)cc2ncc(N3CCOCC3)nc12` (single isomer, unassigned) [Compound 281b], the Kd is 151 nM on PI3Kβ; 3470 nM on PI3Kδ; 7.41 µM at kinase enzymes [1]; 6.17 µM at kinase enzymes [2]; above 30.2 µM on kinase enzymes [3]. Moreover, the IC50 in test [4] and in test [5] was above 513 nM throughout.

For the compound `CC(Nc1cc(F)c(F)c(F)c1)c1cc(C(=O)NCC(C)(C)O)cc2ncc(N3CCOCC3)nc12` (single isomer, unassigned) [Compound 292b], the equilibrium dissociation constant (Kd) is 14800 nM at PI3Kβ; above 30200 nM on PI3Kδ; above 30.2 µM at kinase enzymes [1]; above 30.2 µM on kinase enzymes [2]; above 30.2 µM on kinase enzymes [3]. The IC50 in test [4] and in test [5] was above 513 nM throughout.

With `COC(=O)[C@H]1CCCN1C(=O)c1cc(C(C)Nc2cc(F)cc(F)c2)c2nc(N3CCOCC3)cnc2c1` (stereo partly drawn) [Compound 272], the Kd was 5 nM on PI3Kβ; 2000 nM on PI3Kδ; above 30.2 µM at kinase enzymes [1]; 4.9 µM at kinase enzymes [2]; above 30.2 µM on kinase enzymes [3]. Further, the half-maximal inhibitory concentration (IC50) in test [4] (Homo sapiens, PC-3, 1 h) was 151 nM; in test [5] (Homo sapiens, PC-3, 1 h), around 85 nM.

Consider `CNCCNC(=O)c1cc([C@H](C)Oc2cccc(F)c2)c2nc(N3CCOCC3)cnc2c1` [Compound 123], for which the Kd on PI3Kβ turned out to be 91 nM; on PI3Kδ, 2240 nM; on kinase enzymes [1] it was 12.6 µM; at kinase enzymes [2], 9.33 µM; at kinase enzymes [3], 16.6 µM. Besides, the IC50 in test [4] (Homo sapiens, PC-3, 1 h) is above 513 nM; in test [5] (Homo sapiens, PC-3, 1 h), above 513 nM.

Regarding `CC(Nc1cc(F)cc(F)c1)c1cc(C(=O)NC[C@@H](C)O)cc2ncc(N3CCOCC3)nc12` (single isomer, unassigned) [Compound 202], the equilibrium dissociation constant (Kd) at PI3Kβ was 3950 nM; on PI3Kδ, above 30200 nM; at kinase enzymes [1] it was 3.32 µM; on kinase enzymes [2], above 30.2 µM; on kinase enzymes [3], 6.03 µM. For the same compound, the concentration for half-maximal inhibition (IC50) in test [4] and in test [5] was above 513 nM in each case.

Take `COC1CN(Cc2cc(C(C)Nc3cc(F)cc(F)c3)c3nc(N4CCOCC4)cnc3c2)CC1OC` (single isomer, unassigned) [Compound 205]: the dissociation constant Kd on PI3Kβ is 204 nM; at PI3Kδ, 17400 nM; on kinase enzymes [1], above 30.2 µM; on kinase enzymes [2], above 30.2 µM; on kinase enzymes [3], above 30.2 µM. For the same compound, the concentration for half-maximal inhibition (IC50) is above 513 nM in test [4] (Homo sapiens, PC-3, 1 h) and above 513 nM in test [5].

As for `CC(Nc1cc(F)cc(F)c1)c1cc(COCCO)cc2ncc(N3CCOCC3)nc12` (single isomer, unassigned) [Compound 177], the dissociation constant Kd on PI3Kβ turned out to be 2 nM; at PI3Kδ, 170 nM; at kinase enzymes [1] it was 6.92 µM; on kinase enzymes [2], 1.38 µM; on kinase enzymes [3] it was 24 µM. For the same compound, the IC50 in test [4] came out at 60 nM; in test [5], 42 nM.

Take `CCN1CCN(C(=O)c2cc(C(C)Oc3cccc(F)c3)c3nc(N4CCOCC4)cnc3c2)CC1` (single isomer, unassigned) [Compound 92]: the Kd on PI3Kβ is 1020 nM; at PI3Kδ it was 16600 nM; on kinase enzymes [1] it was above 30.2 µM; at kinase enzymes [2], 16.2 µM; on kinase enzymes [3], above 30.2 µM. The half-inhibitory concentration (IC50) in test [4] and in test [5] was above 513 nM each time.

As to `CNCCNC(=O)c1cc(C(C)Nc2cccc(F)c2)c2nc(N3CCOCC3)cnc2c1` (single isomer, unassigned) [Compound 139], the equilibrium dissociation constant (Kd) on PI3Kβ came to 41 nM; at PI3Kδ, 4420 nM; at kinase enzymes [1], 3.43 µM; on kinase enzymes [2], 3.76 µM; on kinase enzymes [3], 18.6 µM. For the same compound, the half-inhibitory concentration (IC50) came out at 132 nM in test [4] and 249 nM in test [5].

Turning to `CNCCNC(=O)c1cc(C(C)Oc2ccc(F)c(F)c2)c2nc(N3CCOCC3)cnc2c1` (single isomer, unassigned) [Compound 344b], the dissociation constant (Kd) at PI3Kβ is 166 nM; at PI3Kδ it was 3800 nM; at kinase enzymes [1], 14.1 µM; at kinase enzymes [2], 8.13 µM; on kinase enzymes [3], above 30.2 µM. The values for the half-maximal inhibitory concentration (IC50) in test [4] and in test [5] were above 513 nM and around 513 nM, respectively.

Take `Cc1c(F)cccc1CN(C)c1cc(C(=O)N(C)[C@@H]2CCNC2)cc2ncc(N3CCOCC3)nc12` [Compound 359]: the Kd on PI3Kβ was determined as 43 nM; on PI3Kδ, 796 nM; on kinase enzymes [1], 28.8 µM; at kinase enzymes [2], 11.3 µM; on kinase enzymes [3] it was 6.46 µM. Besides, the IC50 is above 513 nM in test [4] (Homo sapiens, PC-3, 1 h) and above 513 nM in test [5] (Homo sapiens, PC-3, 1 h).

Take `C[C@@H]1CN(c2cnc3cc(C(=O)N(C)C)cc(C4CCCN4c4cc(F)cc(F)c4)c3n2)CCO1` (stereo partly drawn) [Compound 3]: the Kd at PI3Kβ was determined as 1 nM; at PI3Kδ, 20 nM; at kinase enzymes [1] it was 0.229 µM; at kinase enzymes [2], 0.047 µM; at kinase enzymes [3], 17.8 µM. Also, the half-maximal inhibitory concentration (IC50) was 3 nM in test [4] and around 3 nM in test [5].

Regarding `CC(Nc1cccc(F)c1)c1cc(CO)cc2ncc(N3CCOCC3)nc12` (stereo not drawn) [Compound 100], the Kd at PI3Kβ stood at 1 nM; on PI3Kδ it was 295 nM; on kinase enzymes [1], 1.74 µM; on kinase enzymes [2], 1.29 µM; on kinase enzymes [3], 14.1 µM. The 50% inhibitory concentration (IC50) in test [4] (Homo sapiens, PC-3, 1 h) turned out to be 145 nM; in test [5] (Homo sapiens, PC-3, 1 h), 68 nM.

For the compound `CN(Cc1cc(F)cc(F)c1)c1cc(C(=O)N2CCNC(C(F)(F)F)C2)cc2ncc(N3CCOCC3)nc12` (stereo not drawn) [Compound 319b], the Kd is 59 nM on PI3Kβ; 1020 nM at PI3Kδ; above 30.2 µM on kinase enzymes [1]; 4.37 µM at kinase enzymes [2]; above 30.2 µM on kinase enzymes [3]. Further, the IC50 is above 513 nM in test [4] (Homo sapiens, PC-3, 1 h) and above 513 nM in test [5] (Homo sapiens, PC-3, 1 h).

In the case of `CC(Nc1cc(F)c(F)c(F)c1)c1cc(C(=O)NCCN(C)C)cc2ncc(N3CCOCC3)nc12` (single isomer, unassigned) [Compound 309a], the Kd is 0.1 nM on PI3Kβ; 59 nM on PI3Kδ; 1.74 µM on kinase enzymes [1]; 1.1 µM on kinase enzymes [2]; 20 µM on kinase enzymes [3]. Further, the IC50 is 9 nM in test [4] and 8 nM in test [5].
